Measured values published in PubChem BioAssay AID330 (DTP/NCI, 2004).
Values joined by “and” are separate entries in the source; they are usually repeats but may differ in a detail not shown here. Equal values may be shown once. Toxic doses and inconclusive results are not listed. The calls were made as follows: active = survival T/C of 150% or more; inactive = T/C below 125% in these data.

Test system: P388 leukemia ip, CD2F1 mice, survival T/C
Test: NCI In Vivo Anticancer Drug Screen. Data for tumor model P388 Leukemia (intraperitoneal) in CD2F1 (CDF1) mice
Details: endpoint: median survival time, higher = longer survival
Summary of the method: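 Mice carrying the transplanted tumor received test compound or vehicle. Survival was recorded in each group, and the value is the treated-group measurement divided by that of the vehicle-treated control group.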

[1] = dose: 50.0 mg/kg/injection, schedule: Q01DX009 (ip), vehicle: saline with Tween-80
[2] = dose: 100.0 mg/kg/injection, schedule: Q01DX009 (ip), vehicle: saline with Tween-80
[3] = dose: 200.0 mg/kg/injection, schedule: Q01DX009 (ip), vehicle: saline with Tween-80
[4] = dose: 25.0 mg/kg/injection, schedule: Q01DX005 (ip), vehicle: saline
[5] = dose: 50.0 mg/kg/injection, schedule: Q01DX005 (ip), vehicle: Klucel (hydroxypropylcellulose) (HPC)
[6] = dose: 100.0 mg/kg/injection, schedule: Q01DX005 (ip), vehicle: Klucel (hydroxypropylcellulose) (HPC)
[7] = dose: 200.0 mg/kg/injection, schedule: Q01DX005 (ip), vehicle: Klucel (hydroxypropylcellulose) (HPC)

Measured: T/C

COc1cccc2c1C(=O)c1c(O)c3c(c(O)c1C2=O)CC(O)(C(=O)COC(C)C)CC3OC1CC(N)C(O)C(C)O1 (stereo not given)
inactive: dose: 3.13 mg/kg/injection, schedule: Q04DX003 (ip), vehicle: water 97 % of control | dose: 6.25 mg/kg/injection, schedule: Q04DX003 (ip), vehicle: water 100 % of control | dose: 12.5 mg/kg/injection, schedule: Q04DX003 (ip), vehicle: water 100 % of control | dose: 25.0 mg/kg/injection, schedule: Q04DX003 (ip), vehicle: water 119 % of control | dose: 50.0 mg/kg/injection, schedule: Q04DX003 (ip), vehicle: water 109 % of control

COc1ccc(OC)c(NC(=O)SC(C)C)c1
inactive: dose: 60.0 mg/kg/injection, schedule: Q01DX005 (ip), vehicle: Klucel (hydroxypropylcellulose) (HPC) 93 % of control | dose: 120.0 mg/kg/injection, schedule: Q01DX005 (ip), vehicle: Klucel (hydroxypropylcellulose) (HPC) 96 % of control | dose: 240.0 mg/kg/injection, schedule: Q01DX005 (ip), vehicle: Klucel (hydroxypropylcellulose) (HPC) 92 % of control

CO/C=C(\C(=O)OC)c1ccccc1
inactive: dose: 50.0 mg/kg/injection, schedule: Q01DX009 (ip), vehicle: Klucel (hydroxypropylcellulose) (HPC) 100 % of control | dose: 100.0 mg/kg/injection, schedule: Q01DX009 (ip), vehicle: Klucel (hydroxypropylcellulose) (HPC) 106 % of control | dose: 200.0 mg/kg/injection, schedule: Q01DX009 (ip), vehicle: Klucel (hydroxypropylcellulose) (HPC) 106 % of control

O=C(Nc1cc(Cl)cc(Cl)c1)N1CCOCC1
inactive: dose: 60.0 mg/kg/injection, schedule: Q01DX005 (ip), vehicle: saline with Tween-80 92 % of control | dose: 120.0 mg/kg/injection, schedule: Q01DX005 (ip), vehicle: saline with Tween-80 92 % of control | dose: 240.0 mg/kg/injection, schedule: Q01DX005 (ip), vehicle: saline with Tween-80 92 % of control

COc1nc(NC2OC(CO)C(O)C(O)C2O)c(/C=N/O)c(=O)n1C (stereo not given)
inactive: dose: 60.0 mg/kg/injection, schedule: Q01DX005 (ip), vehicle: saline 99 % of control | dose: 120.0 mg/kg/injection, schedule: Q01DX005 (ip), vehicle: saline 103 % of control | dose: 240.0 mg/kg/injection, schedule: Q01DX005 (ip), vehicle: saline 99 % of control

CCCCCCCCCCCCCCCCC1(O)OC(=O)C(C)=C1C (stereo not given)
inactive: dose: 12.5 mg/kg/injection, schedule: Q04DX003 (ip), vehicle: saline with Tween-80 100 % of control | dose: 25.0 mg/kg/injection, schedule: Q04DX003 (ip), vehicle: saline with Tween-80 108 % of control | dose: 50.0 mg/kg/injection, schedule: Q04DX003 (ip), vehicle: saline with Tween-80 106 % of control

O=C1CCC(=O)N1CO
inactive: dose: 37.5 mg/kg/injection, schedule: Q01DX009 (ip), vehicle: saline with Tween-80 107 % of control | dose: 75.0 mg/kg/injection, schedule: Q01DX009 (ip), vehicle: saline with Tween-80 120 % of control

CCC[N+]1(CC)CCCCC1
inactive: dose: 3.12 mg/kg/injection, schedule: Q01DX009 (ip), vehicle: saline 103 % of control | dose: 6.25 mg/kg/injection, schedule: Q01DX009 (ip), vehicle: saline 99 % of control | dose: 12.5 mg/kg/injection, schedule: Q01DX009 (ip), vehicle: saline 100 % of control

CC1=NN(C(=O)c2ccncc2)C(=O)C1N=Nc1ccc(S(N)(=O)=O)cc1 (stereo not given)
inactive: [1] 94 % of control | [2] 95 % of control | [3] 92 % of control

COc1ccc(C(=O)C(c2ccc(OC)c(OC)c2O)C(OC)OC)c(O)c1 (stereo not given)
inactive: dose: 75.0 mg/kg/injection, schedule: Q04DX003 (ip), vehicle: Klucel (hydroxypropylcellulose) (HPC) 100 % of control | dose: 150.0 mg/kg/injection, schedule: Q04DX003 (ip), vehicle: Klucel (hydroxypropylcellulose) (HPC) 98 % of control | dose: 300.0 mg/kg/injection, schedule: Q04DX003 (ip), vehicle: Klucel (hydroxypropylcellulose) (HPC) 98 % of control

CN(C)c1nc(N(C)C)oc(=[N+](C)C)n1
inactive: dose: 6.25 mg/kg/injection, schedule: Q01DX005 (ip), vehicle: saline 106 % of control | dose: 12.5 mg/kg/injection, schedule: Q01DX005 (ip), vehicle: saline 103 % of control | [4] 113 % of control

CC1C2C1C1C3NN=CC3C2n2c(=O)n(-c3ccccc3)c(=O)n21 (stereo not given)
inactive: [5] 99 % of control | [6] 100 % of control | [7] 105 % of control

CC(=O)Nc1ccsc1
inactive: [4] 102 % of control | dose: 50.0 mg/kg/injection, schedule: Q01DX005 (ip), vehicle: saline 104 % of control | dose: 100.0 mg/kg/injection, schedule: Q01DX005 (ip), vehicle: saline 109 % of control

Cc1ccc(C(C)(C)C)cc1Br
inactive: dose: 100.0 mg/kg/injection, schedule: Q01DX001 (ip), vehicle: other 95 % of control | dose: 200.0 mg/kg/injection, schedule: Q01DX001 (ip), vehicle: other 100 % of control | dose: 400.0 mg/kg/injection, schedule: Q01DX001 (ip), vehicle: other 88 % of control

COc1ccc(C2=NN(C(C)=O)C(c3cc(OC)c(OC)cc3N)S2)cc1OC (stereo not given) (tested in a mixture with another compound)
inactive: dose: 7.5 mg/kg/injection, schedule: Q01DX005 (ip), vehicle: saline with Tween-80 97 % of control | dose: 15.0 mg/kg/injection, schedule: Q01DX005 (ip), vehicle: saline with Tween-80 92 % of control | dose: 30.0 mg/kg/injection, schedule: Q01DX005 (ip), vehicle: saline with Tween-80 90 % of control

NC(=O)SCC(N)C(=O)O (stereo not given)
inactive: [1] 111 % of control | dose: 50.0 mg/kg/injection, schedule: Q01DX009 (ip), vehicle: saline 108 % of control | dose: 50.0 mg/kg/injection, schedule: Q01DX009 (ip), vehicle: suspension in saline 108 % of control | [2] 114 % of control and 119 % of control | dose: 100.0 mg/kg/injection, schedule: Q01DX009 (ip), vehicle: suspension in saline 121 % of control | dose: 400.0 mg/kg/injection, schedule: Q01DX009 (ip), vehicle: saline with Tween-80 101 % of control | dose: 400.0 mg/kg/injection, schedule: Q01DX009 (ip), vehicle: saline 98 % of control and 93 % of control

CC(C)(F)c1nc2cc3ccccc3cc2[nH]c1=O
inactive: dose: 100.0 mg/kg/injection, schedule: Q01DX001 (ip), vehicle: saline with Tween-80 98 % of control | dose: 200.0 mg/kg/injection, schedule: Q01DX001 (ip), vehicle: saline with Tween-80 90 % of control

CCC1(O)CC(OC2CC(NC)C(OC3CC(O)C(OC4CC(O)C(O)C(C)O4)C(C)O3)C(C)O2)c2c(cc3c(c2O)C(=O)c2c(O)ccc(O)c2C3=O)C1C(=O)OC (stereo not given)
inactive: dose: 3.13 mg/kg/injection, schedule: Q04DX003 (ip), vehicle: Klucel (hydroxypropylcellulose) (HPC) 115 % of control | dose: 6.25 mg/kg/injection, schedule: Q04DX003 (ip), vehicle: Klucel (hydroxypropylcellulose) (HPC) 118 % of control | dose: 12.5 mg/kg/injection, schedule: Q04DX003 (ip), vehicle: Klucel (hydroxypropylcellulose) (HPC) 115 % of control

COC(=O)c1cccc2c1N(C)c1c(cccc1C(=O)OC)CC2
inactive: dose: 50.0 mg/kg/injection, schedule: Q01DX009 (ip), vehicle: distilled water + Tween-80 + alcohol 93 % of control | dose: 100.0 mg/kg/injection, schedule: Q01DX009 (ip), vehicle: distilled water + Tween-80 + alcohol 94 % of control | dose: 200.0 mg/kg/injection, schedule: Q01DX009 (ip), vehicle: distilled water + Tween-80 + alcohol 99 % of control

Nc1ccc2c(n1)NCC/C2=N\Nc1ccc(Br)cc1
inactive: [1] 103 % of control | [2] 104 % of control | [3] 106 % of control

CN(C(N)=O)C1CCCC1
inactive: dose: 100.0 mg/kg/injection, schedule: Q04DX003 (ip), vehicle: saline with Tween-80 100 % of control | dose: 200.0 mg/kg/injection, schedule: Q04DX003 (ip), vehicle: saline with Tween-80 109 % of control | dose: 400.0 mg/kg/injection, schedule: Q04DX003 (ip), vehicle: saline with Tween-80 113 % of control

CS(=O)(=O)N1CC=CCS1=O (stereo not given)
inactive: dose: 6.25 mg/kg/injection, schedule: Q01DX009 (ip), vehicle: Klucel (hydroxypropylcellulose) (HPC) 103 % of control | dose: 12.5 mg/kg/injection, schedule: Q01DX009 (ip), vehicle: Klucel (hydroxypropylcellulose) (HPC) 108 % of control | dose: 25.0 mg/kg/injection, schedule: Q01DX009 (ip), vehicle: Klucel (hydroxypropylcellulose) (HPC) 108 % of control

CCCOc1cc2c(cc1C(C)(C)c1ccccc1)OCO2
inactive: dose: 50.0 mg/kg/injection, schedule: Q01DX005 (ip), vehicle: saline with Tween-80 95 % of control | dose: 100.0 mg/kg/injection, schedule: Q01DX005 (ip), vehicle: saline with Tween-80 100 % of control

CCN(CC)C1=Nc2ccccc2N(c2ccccc2)C(SC)=C1
inactive: [5] 111 % of control | [6] 100 % of control | [7] 97 % of control
